From US9970057B2, “Human invasion signature for prognosis of metastatic risk” (ALBERT EINSTEIN COLLEGE OF MEDICINE, INC., priority 2011, dated 2018)
“Also recorded” adds a separate entry of the source.

Key:
[1] = test system: MDA-MB-231 tumors and patient-derived HT17 and HT39 breast tumors; assay: intravasation assay (circulating tumor cells in blood); type: in vivo, SCID mice; conditions: injected intraperitoneally four hours prior to the experiments; MDA-MB-231, HT17 and HT39 tumors; vs vehicle or control IgG
Procedure: (§1) SB431542 was used, a small molecule specific inhibitor of the TGFβ receptor (14,38), which was injected into the tumor-bearing mice prior to measurements of invasion and intravasation. Invasion was measured by count of the total cells that chemotax and invade in the primary tumor towards a gradient source (EGF or FBS) with the in vivo invasion assay. Intravasation and dissemination was measured by count of the circulating tumor cells in the total blood of tumorbearing mice.
(§2) The inhibitors SB431542 (a small molecule specific inhibitor of the TGFβ receptor), NSC87877 (a small molecule specific inhibitor of PTPN11) were used, and a neutralizing antibody specific to human IL8 for the experiments. Because the focus of the study is migration and invasion, a drug treatment of only 4 hours was given to the mice before experimental assays so that an acute effect on migration can be measured without long-term effects on tumor growth. Invasion was measured by count of the total cells that chemotax and invade in the primary tumor towards a gradient source (EGF or FBS) with the in viva invasion assay. Intravasation and hematogenous dissemination was measured by count of the circulating tumor cells (CTCs) in the blood of tumor-bearing mice. […] No significant difference in overall cell death was observed by histology in the treated tumors with the four-hour acute treatments. […] As a negative control, an inhibitor to a gene was used that was not identified by the HIS, namely, MYC, a known oncogene recently identified as a master regulator of expression in “poor-outcome” cancer signatures. […] Most of the published signatures to date are isolated from whole patient samples, and therefore represent “whole-picture” information about the metastatic process, a summary of invasion, dissemination, and growth/proliferation. […]
(§3) Animal Models. […] The mice were monitored for growth for up to 9 months, at which time if a tumor was not visible they were euthanized. For the tumors that grew, in vivo invasion was measured, and then the tumor was used to passage to new mice (surgical procedure same as before). […]

[2] = test system: MDA-MB-231 tumors and patient-derived HT17 and HT39 breast tumors; assay: in vivo invasion assay in tumor-bearing mice; parameters: species or system SCID mice; conditions: injected intraperitoneally four hours prior to the experiments; EGF or FBS gradient; MDA-MB-231, HT17 and HT39 tumors; vs vehicle or control IgG
Procedure: as §1, §2, §3

[3] = test system: MDA-MB-231 xenograft; assay: BrdU incorporation (proliferation marker) in tumors; type: in vivo; conditions: MDA-MB-231 xenograft mice, acute treatment
Source text: FIG. 13A-13C. […] (15A). Schematic of experimental design for the inhibitor treatments. (15B). Representative images of immunostained tumors sections with BrdU antibody (black) and counterstained for nuclei (gray). (15C). Quantification of the above experiments is shown for 3 mice per group, and 10 random 40× images per mouse/tumor (excluding necrotic areas). Bars represent the average percentage of BrdU positive nuclei (black) over total (gray). Error bars: SEM. p-values by Student's t-test.
The inhibitors SB431542 (a small molecule specific inhibitor of the TGFβ receptor), NSC87877 (a small molecule specific inhibitor of PTPN11) were used, and a neutralizing antibody specific to human IL8 for the experiments. Because the focus of the study is migration and invasion, a drug treatment of only 4 hours was given to the mice before experimental assays so that an acute effect on migration can be measured without long-term effects on tumor growth. Invasion was measured by count of the total cells that chemotax and invade in the primary tumor towards a gradient source (EGF or FBS) with the in viva invasion assay. Intravasation and hematogenous dissemination was measured by count of the circulating tumor cells (CTCs) in the blood of tumor-bearing mice. […] No significant difference in overall cell death was observed by histology in the treated tumors with the four-hour acute treatments. […]

| SMILES | intravasation / tumor cell dissemination (circulating tumor cells in blood) [1] | in vivo invasion (total cells that chemotax and invade in the primary tumor towards a gradient source, cells per microneedle) [2] | BrdU incorporation (percentage of BrdU positive nuclei; proliferation in vivo) [3] |
| --- | --- | --- | --- |
| NC(=O)c1ccc(-c2nc(-c3ccc4c(c3)OCO4)c(-c3ccccn3)[nH]2)cc1 [SB431542, 4-[4-(1,3-benzodioxol-5-yl)-5-(2-pyridinyl)-1H-imidazol-2-yl]benzamide] | effectively abrogate; also recorded: significantly inhibited | effectively abrogate; also recorded: significantly inhibited | – |
| O=S(=O)(O)c1ccc2cc(N=Nc3cc(S(=O)(=O)O)c4cccnc4c3O)ccc2c1 [NSC87877, 8-Hydroxy-7-[(6-sulfo-2-naphthyl)azo]-5-quinolinesulfonic acid] | significantly abrogated; also recorded: significantly inhibited | significantly abrogated; also recorded: significantly inhibited | – |
| CCc1ccc(/C=C2/SC(=S)NC2=O)cc1 [10058-F4] | did not significantly alter | did not significantly alter | significantly reduced; also recorded: significantly inhibits |
